The text below walks through data of a melting point compilation (Tetko et al.; mined from patent text by program, amines drawn as free bases though some values may be those of a salt).

The structures appear in SMILES notation.

As usually defined, the melting point is the temperature, or range, at which the solid turns liquid.

`CCOc1cc(OCCCCc2cc(-c3ccc(C(F)(F)F)cc3)no2)ccc1CCC(=O)O`: the melting point lay in the range of 105 to 106 °C.
Molecule `CS(=O)(=O)OCCOc1ccccc1OCC(F)(F)F` came in with a melting point of 36 to 38 °C.
For `Cc1nc(-c2cccc(C(F)(F)F)c2)ccc1C=O` the value was 61 to 63 °C; for `CCCCN1Nn2c(c3ncnc-3c3cccnc32)N1CC(C)C`, 182 to 184 °C; for `COC(=O)c1ccc(C)c(C2=NC(C)(C(C)C)C(=O)N2)c1Cl` (stereo not drawn), 181 to 183 °C.
Turning to `CN1CCN(Cc2nnc3n2CC(=O)N(C)c2ccc(Cl)cc2-3)CC1`, the melting point is 228 to 230 °C.
In turn, `O=[N+]([O-])c1cccc2c(C(F)(F)F)cccc12` returned a melting point of 107 to 108 °C.
As for `COc1ccc2c(C(=O)C=[N+]=[N-])nn(Cc3ccc(Cl)c(Cl)c3)c(=O)c2c1`, the melting point fell in the range of 129 to 130 °C.
Consider `Cn1nnc2c(N3CCN(Cc4ccccc4)CC3)ncnc21`, for which the melting point was 91 to 92 °C.
For `COc1ccc(-n2c(Cn3ccnc3)nc3ccccc32)cc1` the value was 113 to 114 °C; for `COc1ccc(Nc2ccn(-c3ccc(OCC(=O)O)cc3)n2)cc1`, 163 to 165 °C; for `Fc1ccc(-c2nc(=S)c3c(o2)CCCC3)cc1`, 148 to 149 °C.
In the case of `COc1ccc(-c2cnc3[nH]cc(C(=O)C(C)(C)C)c3n2)cc1`, the melting point fell in the range of 207 to 208 °C.
For the molecule `Nc1nc2c(c3c1ncn3Cc1cc(-c3ccc(F)cc3)no1)NCCC2`, the melting point lay in the range of 227 to 228 °C.
`CS(=O)(=O)Nc1cc2c(cc1Oc1ccc(F)cc1F)C(=O)CCO2` returned a melting point of 164 to 165 °C.
As for `CCn1c(=O)c2[nH]c(/C=C/c3ccc(OC)c(OC)c3)nc2n(CC)c1=O`, the melting point lay in the range of 208 to 211 °C.
Molecule `CN(C)S(=O)(=O)c1cccc(NC(=O)c2cnn3c(C(F)(F)F)cc(-c4ccc(C(F)(F)F)cc4)nc23)c1` registered a melting point of 210 °C.
As to `O=C(CCc1ccc(NC2=NCCN2)cc1)c1ccc(N2CCOCC2)cc1`, the melting point lay within 196 to 198 °C.
In the case of `COc1ccc(OC)c2c1C[C@](O)(C1(C)OCCO1)CC21SCCS1`, the melting point lay in the range of 143 to 145 °C.
`COc1cc2c(cn1)C(=O)N(C(C)C)C2=O` returned a melting point of 150 to 152 °C.
`O=C(O)C1CCc2onc(-c3ccc(Cl)cc3)c2CC1` (stereo not drawn): the melting point lay in the range of 144 to 145 °C.
With `Cn1cc2c(C=O)c(Br)ccc2n1`, the melting point was in the range of 137 to 140 °C.
The molecule `CC(=O)N[C@@H](C)COc1cnc(-c2nc3ccc(OCC4CC4)cc3o2)c(F)c1` gave a melting point of 158 to 159 °C.
`CN(C)C=C(C#N)C(=O)Nc1cc(Cl)ccc1Cl` registered a melting point of 175 to 176 °C.
For `N#CC(=C(Cl)c1ccc(Br)cc1)c1ccccc1` the value was 128 to 130 °C; for `CCNC(=NS(=O)(=O)c1ccc(C#N)cc1)N1CC(CC)C=N1` (stereo not drawn), 146 to 149 °C; for `Cc1ccc(N(C)S(=O)(=O)c2cccs2)c2[nH]c(C(=O)O)cc12`, 223 to 225 °C.
With `COc1c(N2CC(C)C(N)C(C)(C)C2)c(F)cc2c(=O)c(C(=O)O)cn(C3CC3)c12` (stereo not drawn), the melting point lay within 218 to 220 °C.
The molecule `CCCCCCCCCCCCCCOc1cn(Cc2ccccc2)c(CBr)cc1=O` came in with a melting point of 135 to 137 °C.
As to `N#Cc1ccc(-c2c3c(cc4ccc(O)cc24)-c2ccc(O)cc2CO3)cc1`, the melting point is more than 250 °C.
Molecule `CCCCCCCCCCCCCCCCCCOCCOCCO` returned a melting point of 45 to 46 °C.
The molecule `CCN1CCN(C/C=C/c2ccc3c(Nc4ccc(Sc5nccn5C)c(Cl)c4)c(C#N)cnc3c2)CC1` yielded a melting point of 232 to 236 °C.
`COc1cc2c(cc1OC(C)=O)C(=O)CCC2` yielded a melting point of 118 to 120 °C.
`CC(C)(C)c1cc(CCC(=O)Oc2ccccc2)ccc1O` yielded a melting point of 106 to 109 °C.
Molecule `FC(F)(F)Oc1ccc(-n2cc(Br)cn2)cc1` returned a melting point of 63 to 65 °C.
For the molecule `C=CCN(CC=C)c1nc(NC(=O)c2ccc(Cl)cc2)n2oc(=O)nc2n1`, the melting point is 192 to 194 °C.
Regarding `O=C1CSC(c2ccc(-n3ccc(=O)cc3)cc2)=NN1`, the melting point is 289 to 291 °C.
`CC(=O)Oc1ccccc1-c1[nH]c2ccc(Cl)cc2c1-c1ccc(S(C)(=O)=O)cc1` showed a melting point of 238 to 240 °C.
On to `CCOC(=O)c1cc(CC)sc1Nc1cc(F)cc(F)c1N`, for which the melting point was 106 °C.
In turn, `CC1(C)NC(=O)N(c2ccc(Oc3ccccc3)cc2)C1=O` came in with a melting point of 165 °C.
`Cc1c(Oc2c(F)cc(C(F)(F)F)cc2Cl)nn(C(=O)OC(C)(C)C)c1C` registered a melting point of 138 to 139 °C.
`COc1cc2c(cc1OC)CC(N(C)CCCN1CCc3cc(OC)c(OC)cc3C(O)C1=O)CC2` (stereo not drawn) registered a melting point of 141 to 143 °C.
As for `Cc1ccccc1C=Nc1c2c(nc3ccccc13)CCCC2`, the melting point was in the range of 160 to 162 °C.
For `COCCC(=O)C1(N)C=CC(N(C)C(C)=O)=C(C#N)C1` (stereo not drawn) the value was 143 to 145 °C; for `CCc1nc(OC)c(NC(=O)N2CCN(c3cc(Cl)cc(Cl)c3)CC2)cc1C(=O)Nc1cc(CO)cc(Nc2c3ccccc3nc3ccccc23)c1`, 210 to 212 °C; for `COC(=O)C1=C(C)NC(N)=C(C(=O)OC(C)C)C1c1ccccc1[N+](=O)[O-]` (stereo not drawn), 203 °C.
The molecule `COC(=O)C1=C(C)NN=C(c2cccc(Cl)c2)C1c1cccc(Cl)c1` (stereo not drawn) had a melting point of 204 °C.
For `CC(=O)NC(C)(C)c1ccc(CN2CCN(c3cccc(F)n3)CC2)cc1` the value was 133 to 134 °C; for `CS(=O)(=O)N1CCN([C@@H](CNC(=O)c2ccc(OCc3ccc(F)cc3)cc2)C(=O)NO)CC1`, 194 °C; for `NC(=O)CCc1ccc(-c2nc(=O)c3ccccc3s2)nc1`, 248 °C.
In the case of `COc1ccc(C2=NN(CC(=O)c3ccc(Cl)cc3)C(=O)[C@H]3CCCC[C@@H]23)cc1OC` (relative stereo), the melting point lay in the range of 142 to 144 °C.
`N#Cc1ccccc1-c1ccc2[nH]ncc2c1` displayed a melting point of 163 to 170 °C.
As for `CC(C)(C)OC(=O)NCCNC(=O)c1ncsc1-c1cccc(OCc2cccc(Cl)c2)c1`, the melting point lay within 116 to 117 °C.
`FC(F)(F)c1cc(-c2ccc(Cl)cc2)nc2c(-c3ccncc3)cnn12` showed a melting point of 274 °C.
For the molecule `C=Cc1ccc2nc(Cl)c(S(N)(=O)=O)n2n1`, the melting point was in the range of 229 to 233 °C.
For `c1ccc(C(=C2CCN(CCN3CCNCC3)CC2)c2ccccc2)cc1` the value was 73 to 75 °C; for `O=c1[nH]c2ncc(-c3cn[nH]c3)nc2n1CC1CCCCC1`, 246 to 248 °C; for `COC(=O)c1cccc2c1Nc1cccc(I)c1C2`, 108 to 110 °C.
The figure for `O=C(O)COc1cccc2c1CC(S(=O)(=O)Cc1ccccc1)c1sc(-c3cccc(F)c3)nc1-2` (stereo not drawn) is 215 to 217 °C; for `CC(C)(c1ccccc1)c1ccc(N)c([N+](=O)[O-])c1` it is 92 to 94 °C; for `CCOC(=O)[C@@H](NC(=O)[C@H](CC(C)C)NC(=O)OC(C)(C)C)[C@@H](C)O` it is 67 to 70 °C.
The figure for `CC1=NN(c2ccc(C(=O)O)cc2)C(=O)C1Cc1ccc(-c2cc(C)c(C)cc2[N+](=O)[O-])o1` (stereo not drawn) is 160 to 163 °C; for `CCCN(CCC)C1Cc2cccc3[nH]c(=O)n(c23)C1` (stereo not drawn) it is 190 to 192 °C.
